Measurements from paper PMC8931322 (Proceedings of the National Academy of Sciences of the …, 2022).
pEC50: −log10 of the molar value.

Experiments:
Type in all cases: cell-based
AtSK11 = target: T1, AtSK11 (Arabidopsis thaliana, UniProt P43288); test: CETSA melting curve, Western blot; details: intact cells, 250 µM bikinin, 30 min
T1 sequence (P43288 2-405): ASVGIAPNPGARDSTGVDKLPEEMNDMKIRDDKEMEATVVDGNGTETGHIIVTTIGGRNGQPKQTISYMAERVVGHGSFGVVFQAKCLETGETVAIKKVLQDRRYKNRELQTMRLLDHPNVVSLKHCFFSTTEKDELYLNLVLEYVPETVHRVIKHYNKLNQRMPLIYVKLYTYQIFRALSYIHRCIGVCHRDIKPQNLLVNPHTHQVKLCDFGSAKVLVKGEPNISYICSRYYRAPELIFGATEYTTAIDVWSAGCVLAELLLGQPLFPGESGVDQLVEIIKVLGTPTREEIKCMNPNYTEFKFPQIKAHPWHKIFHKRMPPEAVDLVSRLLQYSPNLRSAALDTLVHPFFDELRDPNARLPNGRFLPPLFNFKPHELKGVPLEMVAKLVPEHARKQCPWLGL

BIN2/AtSK21 = target: T2, BIN2/AtSK21 (Arabidopsis thaliana, UniProt Q39011); test: CETSA melting curve, Western blot; details: intact cells, 250 µM bikinin, 30 min
T2 sequence (Q39011 1-380): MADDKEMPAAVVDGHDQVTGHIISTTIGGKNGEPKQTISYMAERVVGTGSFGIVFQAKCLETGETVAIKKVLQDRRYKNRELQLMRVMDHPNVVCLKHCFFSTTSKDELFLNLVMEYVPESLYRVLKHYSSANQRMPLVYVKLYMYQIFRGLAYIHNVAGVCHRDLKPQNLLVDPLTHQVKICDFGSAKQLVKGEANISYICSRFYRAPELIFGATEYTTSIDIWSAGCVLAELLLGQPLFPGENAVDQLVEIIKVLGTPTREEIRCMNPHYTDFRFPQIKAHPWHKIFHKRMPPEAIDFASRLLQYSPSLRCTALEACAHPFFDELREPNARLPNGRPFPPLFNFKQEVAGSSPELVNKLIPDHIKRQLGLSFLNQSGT

AtSK22 = target: T3, AtSK22 (Arabidopsis thaliana, UniProt Q39012); test: CETSA melting curve, Western blot; details: intact cells, 250 µM bikinin, 30 min
T3 sequence (Q39012 2-407): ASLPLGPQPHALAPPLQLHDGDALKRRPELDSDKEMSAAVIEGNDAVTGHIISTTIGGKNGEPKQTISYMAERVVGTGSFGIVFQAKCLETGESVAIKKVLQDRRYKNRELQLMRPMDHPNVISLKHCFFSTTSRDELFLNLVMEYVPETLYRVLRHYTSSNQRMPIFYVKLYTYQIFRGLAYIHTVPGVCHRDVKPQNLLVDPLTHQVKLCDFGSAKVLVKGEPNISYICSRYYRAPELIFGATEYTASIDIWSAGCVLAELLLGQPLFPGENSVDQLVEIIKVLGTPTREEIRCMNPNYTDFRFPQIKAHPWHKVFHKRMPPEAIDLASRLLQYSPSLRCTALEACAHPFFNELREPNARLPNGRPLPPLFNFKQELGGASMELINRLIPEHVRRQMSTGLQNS

AtSK12 = target: T4, AtSK12 (Arabidopsis thaliana, UniProt P43289); test: isothermal dose-response CETSA
T4 sequence (P43289 2-409): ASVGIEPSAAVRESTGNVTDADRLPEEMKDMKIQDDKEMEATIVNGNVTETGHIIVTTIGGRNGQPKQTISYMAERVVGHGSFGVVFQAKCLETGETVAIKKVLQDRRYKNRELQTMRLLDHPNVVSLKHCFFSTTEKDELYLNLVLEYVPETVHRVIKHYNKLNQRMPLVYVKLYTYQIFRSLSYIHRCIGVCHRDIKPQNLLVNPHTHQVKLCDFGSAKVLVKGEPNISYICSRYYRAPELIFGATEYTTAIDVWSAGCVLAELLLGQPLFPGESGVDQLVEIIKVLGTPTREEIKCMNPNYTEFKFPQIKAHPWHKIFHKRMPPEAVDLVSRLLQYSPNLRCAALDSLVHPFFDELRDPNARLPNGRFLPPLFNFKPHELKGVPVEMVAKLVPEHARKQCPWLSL

AtSK41 = target: T5, AtSK41 (Arabidopsis thaliana, UniProt Q39019); test: CETSA melting curve, Western blot; details: intact cells, 250 µM bikinin, 30 min
T5 sequence (Q39019 1-421): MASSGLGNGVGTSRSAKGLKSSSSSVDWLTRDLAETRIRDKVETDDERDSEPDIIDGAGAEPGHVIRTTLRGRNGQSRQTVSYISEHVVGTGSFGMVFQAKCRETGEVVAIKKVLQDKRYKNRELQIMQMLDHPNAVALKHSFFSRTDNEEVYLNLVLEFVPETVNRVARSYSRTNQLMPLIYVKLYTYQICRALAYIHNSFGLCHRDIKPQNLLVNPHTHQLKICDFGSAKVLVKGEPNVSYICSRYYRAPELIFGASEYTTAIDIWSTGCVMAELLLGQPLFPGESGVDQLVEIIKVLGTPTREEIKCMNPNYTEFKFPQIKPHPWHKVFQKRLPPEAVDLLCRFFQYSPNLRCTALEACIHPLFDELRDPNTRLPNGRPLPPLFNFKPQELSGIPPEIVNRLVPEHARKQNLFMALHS

For `O=C(O)CCC(=O)Nc1ccc(Br)cn1` [bikinin], the Tm shift (AtSK11) was “AtSK11, AtSK12, AtSK13, BIN2/AtSK21, AtSK22, and AtSK41 showed Tm shifts”, the Tm shift (BIN2/AtSK21) was “BIN2/AtSK21, AtSK22, and AtSK41 showed Tm shifts” and the Tm shift (AtSK22) was “BIN2/AtSK21, AtSK22, and AtSK41 showed Tm shifts”. The pEC50 (AtSK12) was about 4.15 and the Tm shift (AtSK41) was “BIN2/AtSK21, AtSK22, and AtSK41 showed Tm shifts”.
